We go through four molecules from ChEMBL document CHEMBL1141794, “Alkamides from the leaves of Zanthoxylum syncarpum” (J Nat Prod, 2005).

Activity calls are given as the source filed them. The rule behind the calls is not given here.

By IC50 is commonly meant the midpoint of a concentration-inhibition curve.

For assay [1], the system named is Plasmodium falciparum. The note with it: W2.
Description: (§1) Antiplasmodial activity against chloroquine-resistant Plasmodium falciparum W2 after 48 hrs
Assay [2] concerns Plasmodium falciparum. The note with it: D6.
Description: (§2) Antiplasmodial activity against chloroquine-sensitive Plasmodium falciparum D6 after 48 hrs
Assay [3] has as its system Plasmodium falciparum. Kind of assay: microbe, parasite or virus in culture. The note with it: W2, 48 h.
Description: as §1
Assay [4] deals with Plasmodium falciparum. Kind of assay: microbe, parasite or virus in culture. The note with it: D6, 48 h.
Description: as §2

Consider `COc1ccc(C(CNC(=O)/C=C/c2ccccc2)OC(C)=O)cc1OC` (stereo not drawn), for which the result in the assay with Plasmodium falciparum [1] and in the assay on Plasmodium falciparum [2] was inactive.

On to `C[C@@H]1CC[C@H]2[C@@H](C)C(=O)O[C@@H]3O[C@@]4(C)CC[C@@H]1[C@]32OO4` [ARTEMISININ], for which the IC50 with Plasmodium falciparum [3] is 30 nM; in the assay on Plasmodium falciparum [4], 40 nM.

On to `COc1ccc([C@H](CNC(=O)/C=C/c2ccccc2)C(=O)/C=C/c2ccccc2)cc1OC`, for which the IC50 in the assay on Plasmodium falciparum [3] stood at 6100 nM; with Plasmodium falciparum [4], 4200 nM.

Take `COc1ccc(C(O)CNC(=O)/C=C/c2ccccc2)cc1OC` (stereo not drawn): the result with Plasmodium falciparum [1] and in the assay on Plasmodium falciparum [2] was inactive.
